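Following 48 hours of exposure in 96-well plates, responses at five concentrations were used to interpolate endpoints linearly. GI50: concentration for 50% inhibition of growth.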 Activity calls are given as the source filed them. Rule as the data show it: active = GI50 up to about 1.1 µM and inactive = higher.
Columns and labels:
Test in all cases: NCI-60 cell line screen, 48 h
[1] = test system: ACHN
[2] = test system: A498
[3] = test system: NCI-H522
[4] = test system: SF-268
[5] = test system: HCC 2998
[6] = test system: SK-MEL-2
[7] = test system: CCRF-CEM
[8] = test system: MOLT-4
[9] = test system: SF-539
[10] = test system: NCI-H23
[11] = test system: HOP-62
[12] = test system: OVCAR-5
[13] = test system: K562
[14] = test system: SNB-75
[15] = test system: HCT-116
[16] = test system: HT-29
[17] = test system: EKVX
[18] = test system: UACC-62
[19] = test system: HOP-92
[20] = test system: RPMI-8226

Structure (SMILES) | GI50 [1] | GI50 [2] | GI50 [3] | GI50 [4] | GI50 [5] | GI50 [6] | GI50 [7] | GI50 [8] | GI50 [9] | GI50 [10] | GI50 [11] | GI50 [12] | GI50 [13] | GI50 [14] | GI50 [15] | GI50 [16] | GI50 [17] | GI50 [18] | GI50 [19] | GI50 [20]
N#Cc1c(-c2ccccc2)c(CN2CCCCC2)c(=O)n2c1[nH]c1ccccc12 | 33.7 µM (inactive) | 30.4 µM (inactive) | 24.3 µM (inactive) | 45.1 µM (inactive) | 53.8 µM (inactive) | 37.3 µM (inactive) | 25.9 µM (inactive) | 0.0764 µM (active) | 38.1 µM (inactive) | 37.9 µM (inactive) | 20.7 µM (inactive) | 34.9 µM (inactive) | 24.7 µM (inactive) | 81.1 µM (inactive) | 16.6 µM (inactive) | – | – | – | – | –
COC(=O)C(NC(=O)OC(C)(C)C)P(=O)(OC)OC (configuration not stated) | > 100 µM (inactive) | > 100 µM (inactive) | > 100 µM (inactive) | > 100 µM (inactive) | – | > 100 µM (inactive) | – | > 100 µM (inactive) | – | > 100 µM (inactive) | > 100 µM (inactive) | > 100 µM (inactive) | > 100 µM (inactive) | – | > 100 µM (inactive) | > 100 µM (inactive) | > 100 µM (inactive) | > 100 µM (inactive) | > 100 µM (inactive) | > 100 µM (inactive)
Cc1ccc(S(=O)(=O)NCCCSCCN)cc1 | > 100 µM (inactive) | 4.99 µM (inactive) | > 100 µM (inactive) | > 100 µM (inactive) | > 100 µM (inactive) | – | > 100 µM (inactive) | > 100 µM (inactive) | – | > 100 µM (inactive) | – | – | > 100 µM (inactive) | > 100 µM (inactive) | > 100 µM (inactive) | > 100 µM (inactive) | – | – | > 100 µM (inactive) | –
CC(C)=CCC/C(C)=C/CC/C(C)=C/CSc1ccc(Cl)cc1C(=O)O | 18.5 µM (inactive) | 19.8 µM (inactive) | – | 17.9 µM (inactive) | 20.5 µM (inactive) | 15 µM (inactive) | 21.2 µM (inactive) | 23.1 µM (inactive) | 18.9 µM (inactive) | 17.7 µM (inactive) | 14.9 µM (inactive) | 18.9 µM (inactive) | 25.5 µM (inactive) | 18.7 µM (inactive) | 17.8 µM (inactive) | 21.1 µM (inactive) | 18.6 µM (inactive) | 17.9 µM (inactive) | 22.2 µM (inactive) | 22.6 µM (inactive)
C[N+](C)(C)/C=N\c1cccc2c1CCCC2 | > 100 µM (inactive) | > 100 µM (inactive) | – | > 100 µM (inactive) | – | > 100 µM (inactive) | 50.7 µM (inactive) | > 100 µM (inactive) | > 100 µM (inactive) | 79.6 µM (inactive) | > 100 µM (inactive) | > 100 µM (inactive) | 18 µM (inactive) | 56.5 µM (inactive) | > 100 µM (inactive) | 58.1 µM (inactive) | > 100 µM (inactive) | > 100 µM (inactive) | 17.7 µM (inactive) | 21.5 µM (inactive)
COc1ccc(C2C3CCc4ccccc4C3=NN2S(=O)(=O)c2cccc(C(=O)O)c2OC)cc1 (configuration not stated) | 7.83 µM (inactive) | – | 3.19 µM (inactive) | 14 µM (inactive) | – | 15.7 µM (inactive) | 10.4 µM (inactive) | 9.02 µM (inactive) | 6.21 µM (inactive) | 52.4 µM (inactive) | 21 µM (inactive) | 92.9 µM (inactive) | 4.06 µM (inactive) | – | 10.3 µM (inactive) | 5 µM (inactive) | 15 µM (inactive) | 6.14 µM (inactive) | 15.7 µM (inactive) | 9.55 µM (inactive)
O=C1CC2(CCC(O)(c3ccc4ccccc4c3)C(C(=O)c3ccc4ccccc4c3)C2)C(=O)c2ccccc2N1 (configuration not stated) | – | > 100 µM (inactive) | – | > 100 µM (inactive) | > 100 µM (inactive) | > 100 µM (inactive) | > 100 µM (inactive) | 8.93 µM (inactive) | > 100 µM (inactive) | > 100 µM (inactive) | > 100 µM (inactive) | > 100 µM (inactive) | > 100 µM (inactive) | > 100 µM (inactive) | > 100 µM (inactive) | > 100 µM (inactive) | > 100 µM (inactive) | > 100 µM (inactive) | 5.69 µM (inactive) | –
Cc1nc2c(nc1Cl)nc(Oc1ccc(Cl)cc1)c1ccccc12 | 39.5 µM (inactive) | – | 50.9 µM (inactive) | 56.8 µM (inactive) | > 100 µM (inactive) | > 100 µM (inactive) | > 100 µM (inactive) | > 100 µM (inactive) | 90.8 µM (inactive) | 45.8 µM (inactive) | 28.6 µM (inactive) | > 100 µM (inactive) | > 100 µM (inactive) | 26.7 µM (inactive) | 41.7 µM (inactive) | > 100 µM (inactive) | > 100 µM (inactive) | 48.2 µM (inactive) | – | > 100 µM (inactive)
C=C(/C=C/C=C(/CCC=C(C)C)COC(C)=O)[C@@H]1CC[C@]2([C@H](CCCO)/C(=C(/C)C=O)CC[C@]2(C)O)[C@@H]1O | 11.5 µM (inactive) | – | 17.1 µM (inactive) | 15.7 µM (inactive) | 7.4 µM (inactive) | 17.9 µM (inactive) | 1.86 µM (inactive) | 9.29 µM (inactive) | 14 µM (inactive) | 18.8 µM (inactive) | – | 39 µM (inactive) | 2.92 µM (inactive) | > 10 µM (inactive) | 19.5 µM (inactive) | 14.8 µM (inactive) | 18.1 µM (inactive) | – | < 0.01 µM (active) | –
COC1CC(C)(NC(=O)C(F)(F)F)C2OC(c3ccccc3)OCC2O1 (configuration not stated) | > 100 µM (inactive) | > 100 µM (inactive) | > 100 µM (inactive) | > 100 µM (inactive) | – | – | > 100 µM (inactive) | 47.3 µM (inactive) | > 100 µM (inactive) | > 100 µM (inactive) | > 100 µM (inactive) | > 100 µM (inactive) | > 100 µM (inactive) | > 100 µM (inactive) | > 100 µM (inactive) | 47 µM (inactive) | > 100 µM (inactive) | > 100 µM (inactive) | > 100 µM (inactive) | > 100 µM (inactive)
CN(C)c1cccc2c1C(=O)C=CC21CCc2ccc(N(C)C)c3c(N(C)C)ccc1c23 (configuration not stated) | 13.4 µM (inactive) | 4.47 µM (inactive) | – | 14.4 µM (inactive) | – | – | 6.41 µM (inactive) | 12 µM (inactive) | 16.3 µM (inactive) | 16.9 µM (inactive) | 14.5 µM (inactive) | 19.1 µM (inactive) | 3.96 µM (inactive) | 4.8 µM (inactive) | 10.9 µM (inactive) | 13.1 µM (inactive) | 20 µM (inactive) | 12.9 µM (inactive) | 12.3 µM (inactive) | 16.9 µM (inactive)
CCCC(=O)Nc1cc2c3c(c1)CCCN3CCC2 | > 10 µM (inactive) | – | > 10 µM (inactive) | > 10 µM (inactive) | > 10 µM (inactive) | – | > 10 µM (inactive) | – | > 10 µM (inactive) | 3.77 µM (inactive) | > 10 µM (inactive) | > 10 µM (inactive) | > 10 µM (inactive) | > 10 µM (inactive) | > 10 µM (inactive) | > 10 µM (inactive) | – | > 10 µM (inactive) | > 10 µM (inactive) | > 10 µM (inactive)
O=S(O)CCCSSSCCCS(=O)O | > 100 µM (inactive) | > 100 µM (inactive) | > 100 µM (inactive) | > 100 µM (inactive) | > 100 µM (inactive) | > 100 µM (inactive) | > 100 µM (inactive) | > 100 µM (inactive) | > 100 µM (inactive) | > 100 µM (inactive) | > 100 µM (inactive) | > 100 µM (inactive) | > 100 µM (inactive) | > 100 µM (inactive) | > 100 µM (inactive) | > 100 µM (inactive) | > 100 µM (inactive) | > 100 µM (inactive) | – | –
Cn1c(=O)n2n(c1=O)C(C)(C13CC4CC(CC(C4)C1)C3)C13CC4CC(CC1C4)CC23 (configuration not stated) | > 100 µM (inactive) | > 100 µM (inactive) | – | > 100 µM (inactive) | – | > 100 µM (inactive) | > 100 µM (inactive) | 89.9 µM (inactive) | > 100 µM (inactive) | > 100 µM (inactive) | > 100 µM (inactive) | > 100 µM (inactive) | 87.1 µM (inactive) | > 100 µM (inactive) | – | > 100 µM (inactive) | > 100 µM (inactive) | > 100 µM (inactive) | > 100 µM (inactive) | > 100 µM (inactive)
O=C1CCCC2=C1CC1=C(CCCC1=O)N2c1cccc([N+](=O)[O-])c1 | > 100 µM (inactive) | > 100 µM (inactive) | – | > 100 µM (inactive) | > 100 µM (inactive) | – | > 100 µM (inactive) | > 100 µM (inactive) | > 100 µM (inactive) | > 100 µM (inactive) | – | > 100 µM (inactive) | > 100 µM (inactive) | > 100 µM (inactive) | – | > 100 µM (inactive) | > 100 µM (inactive) | > 100 µM (inactive) | – | > 100 µM (inactive)
CC(C)NC(=O)OCc1nnn2c1CCC2 | > 100 µM (inactive) | – | > 100 µM (inactive) | – | > 100 µM (inactive) | > 100 µM (inactive) | > 100 µM (inactive) | > 100 µM (inactive) | > 100 µM (inactive) | > 100 µM (inactive) | > 100 µM (inactive) | > 100 µM (inactive) | > 100 µM (inactive) | > 100 µM (inactive) | > 100 µM (inactive) | > 100 µM (inactive) | > 100 µM (inactive) | > 100 µM (inactive) | 74 µM (inactive) | –
